What was measured:
[1] = molecular target: T1, C-RAF (Homo sapiens, UniProt P04049, Y340E/Y341E); assay: In vitro Raf activity determination (Alpha Screen, biotinylated kinase-dead MEK1 substrate), C-Raf; type: biochemical; settings: c-Raf approximately 4 nM; ATP 1 μM; pre-incubation 60 minutes; reaction 1 hour at room temperature
T1 construct: His tag (implied by nickel chromatography) (cleaved yes); StrepII tag (cleaved yes); made in house; host or cells: Sf9 insect cells (baculovirus), CRAF and h14-3-3 zeta co-expressed; MEK1 substrate from E. coli
Procedure, shortened: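 AlphaScreen read-out of MEK phosphorylation using an anti-phospho-MEK1/2 antibody after a 1 hour room-temperature reaction at 1 μM ATP. Enzyme: approximately 4 nM Sf9-expressed full-length activated C-Raf (Y340E/Y341E, with 14-3-3ζ) on approximately 10 nM biotinylated K97R MEK1, after 60 min compound preincubation. IC50 by non-linear fit.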

[2] = molecular target: T2, b-Raf (V600E) (Homo sapiens, UniProt P15056, V600E); assay: In vitro Raf activity determination (Alpha Screen, biotinylated kinase-dead MEK1 substrate), B-Raf; type: biochemical; settings: b-Raf (V600E) approximately 4 pM; ATP 10 μM; pre-incubation 60 minutes; reaction 3 hours at room temperature
T2 construct: made in house
Procedure, shortened: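 IC50 from non-linear regression of AlphaScreen phospho-MEK signal (anti-p-MEK1/2 antibody). b-Raf(V600E), about 4 pM, phosphorylated ~10 nM biotinylated K97R MEK1 with 10 μM ATP for 3 h at room temperature after 60 min compound pre-incubation; buffer pH 7.5 Tris, 15 mM MgCl2, 1 mM DTT.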

T1 sequence (P04049 whole entry Y340E/Y341E): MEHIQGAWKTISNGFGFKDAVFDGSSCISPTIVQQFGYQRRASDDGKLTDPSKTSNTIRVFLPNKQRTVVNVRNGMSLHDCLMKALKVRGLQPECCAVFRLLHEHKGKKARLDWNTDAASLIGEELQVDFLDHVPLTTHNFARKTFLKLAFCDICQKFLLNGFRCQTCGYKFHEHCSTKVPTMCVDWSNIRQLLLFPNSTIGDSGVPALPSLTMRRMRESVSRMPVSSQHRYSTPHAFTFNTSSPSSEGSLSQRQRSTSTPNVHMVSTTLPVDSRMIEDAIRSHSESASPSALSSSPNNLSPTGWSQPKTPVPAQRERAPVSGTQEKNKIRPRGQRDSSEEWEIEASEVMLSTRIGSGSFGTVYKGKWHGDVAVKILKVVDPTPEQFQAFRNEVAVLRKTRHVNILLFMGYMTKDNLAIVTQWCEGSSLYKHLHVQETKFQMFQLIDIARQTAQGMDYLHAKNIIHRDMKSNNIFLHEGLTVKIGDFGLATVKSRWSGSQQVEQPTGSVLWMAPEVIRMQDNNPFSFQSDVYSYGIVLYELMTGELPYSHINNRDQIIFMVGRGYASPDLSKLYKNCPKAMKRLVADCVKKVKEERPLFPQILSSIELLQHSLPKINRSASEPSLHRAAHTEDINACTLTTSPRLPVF
T1 sequence (P63104 whole entry partner): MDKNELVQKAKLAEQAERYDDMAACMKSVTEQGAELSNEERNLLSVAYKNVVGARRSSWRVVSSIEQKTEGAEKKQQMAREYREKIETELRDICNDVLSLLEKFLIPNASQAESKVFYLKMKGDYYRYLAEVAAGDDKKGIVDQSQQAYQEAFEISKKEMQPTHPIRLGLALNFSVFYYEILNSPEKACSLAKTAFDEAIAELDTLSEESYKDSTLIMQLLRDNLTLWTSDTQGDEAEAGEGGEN
T2 sequence (P15056 whole entry V600E): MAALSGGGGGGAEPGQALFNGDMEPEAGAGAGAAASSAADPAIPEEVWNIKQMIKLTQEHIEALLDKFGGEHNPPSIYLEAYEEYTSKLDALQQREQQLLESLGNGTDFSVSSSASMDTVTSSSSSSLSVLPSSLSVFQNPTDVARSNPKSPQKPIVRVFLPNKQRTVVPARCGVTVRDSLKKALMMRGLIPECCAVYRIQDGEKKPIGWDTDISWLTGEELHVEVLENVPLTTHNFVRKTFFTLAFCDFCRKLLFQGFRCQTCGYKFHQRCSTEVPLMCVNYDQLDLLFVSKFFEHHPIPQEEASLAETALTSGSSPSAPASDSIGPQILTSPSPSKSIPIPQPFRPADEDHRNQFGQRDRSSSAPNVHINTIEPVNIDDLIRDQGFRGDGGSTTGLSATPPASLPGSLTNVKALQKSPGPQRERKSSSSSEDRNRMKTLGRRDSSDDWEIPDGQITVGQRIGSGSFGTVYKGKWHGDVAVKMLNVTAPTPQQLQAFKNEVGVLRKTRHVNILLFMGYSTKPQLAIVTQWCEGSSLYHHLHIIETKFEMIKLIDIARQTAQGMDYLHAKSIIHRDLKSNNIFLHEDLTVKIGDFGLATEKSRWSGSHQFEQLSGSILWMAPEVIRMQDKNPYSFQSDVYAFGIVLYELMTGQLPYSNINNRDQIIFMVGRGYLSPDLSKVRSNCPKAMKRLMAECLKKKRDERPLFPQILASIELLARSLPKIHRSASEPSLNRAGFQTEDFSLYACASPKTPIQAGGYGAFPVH

IC50 [1] [nM] | IC50 [2] [nM] | Structure (SMILES)
1.81 | 16.4 | Cc1ncc(NC(=O)c2ccnc(C(C)(C)C#N)c2)cc1-c1cnc(N)c(C#N)c1 [Example 38, N-(6′-amino-5′-cyano-2-methyl-[3,3′-bipyridin]-5-yl)-2-(2-cyanopropan-2-yl)isonicotinamide]
0.612 | 2.04 | Cc1ncc(NC(=O)c2ccnc(C(C)(C)C#N)c2)cc1-c1cnc(N2C[C@H]3CC[C@@H](C2)O3)c(C#N)c1 [Example 88, N-(6′-((1R,5S)-8-oxa-3-azabicyclo[3,2,1]octan-3-yl)-5′-cyano-2-methyl-[3,3′-bipyridin]-5-yl)-2-(2-cyanopropan-2-yl)isonicotinamide]
0.397 | 2.15 | Cc1ccc(NC(=O)c2ccnc(C(C)(C)C#N)c2)cc1-c1cnc(NC2CC2)c(C#N)c1 [Example 19, N-(3-(5-cyano-6-(cyclopropylamino)pyridin-3-yl)-4-methylphenyl)-2-(2-cyanopropan-2-yl)isonicotinamide]

The remaining lines, values behind:

Structure (SMILES) | IC50 [1] [nM] | IC50 [2] [nM]
Cc1ncc(NC(=O)c2ccnc(C(F)(F)F)c2)cc1-c1cnc(-n2ccccc2=O)c(C#N)c1 [Example 51, N-(3′-cyano-2″- methyl-2-oxo-2H-[1,2′:5′,3″- terpyridin]-5″-yl)-2-(trifluoromethyl) isonicotinamide] | 101 | 447
Cc1ccc(NC(=O)c2ccnc(C(F)(F)F)c2)cc1-c1cnc(N2CC(O)C2)c(C#N)c1 [Example 63, N-(3-(5-cyano-6-(3-hydroxyazetidin-1-yl)pyridin-3-yl)-4-methylphenyl)-2-(trifluoromethyl) isonicotinamide] | 0.121 | 0.488
Cc1ccc(NC(=O)c2cnnc(C(C)(C)C#N)c2)cc1-c1cnc(N2CCOCC2)c(C#N)c1 [Example 206, N-(3-(5-cyano-6-morpholinopyridin-3-yl)-4-methylphenyl) 6-(2-cyanopropan-2 yl)pyridazine-4-carboxamide] | 0.199 | 1.23
Cc1ccc(NC(=O)c2ccnc(S(C)(=O)=O)c2)cc1-c1cnc(C2CCOCC2)c(C#N)c1 [Example 138, N-(3-(5-cyano-6-(tetrahydro-2H-pyran-4-yl)pyridin-3-yl)-4-methylphenyl)-2-(methylsulfonyl) isonicotinamide] | 0.511 | 4.14
Cc1ncc(NC(=O)c2cc(C(F)(F)F)ccn2)cc1-c1cnc(N2CC(C)(O)C2)c(C#N)c1 [Example 225, N-(5′-cyano-6′-(3-hydroxy-3-methylazetidin-1-yl)-2-methyl-[3,3′-bipyridin]-5-yl)-4-(trifluoromethyl) picolinamide] | 1.08 | 5
Cc1ncc(NC(=O)c2cnnc(C3CC3)c2)cc1-c1cnc(NC2CCOCC2)c(C#N)c1 [Example 200, N-(5′-cyano-2-methyl-6′-((tetrahydro-2H-pyran-4-yl)amino)-[3,3′-bipyridin]-5-yl)-6-cyclopropylpyridazine-4-carboxamide] | 2.38 | 15.2
